In paper PMC9578020, “Design, synthesis, molecular modeling, and bioactivity evaluation of 1,10-phenanthroline and prodigiosin (Ps) derivatives and their Copper(I) complexes against mTOR and HDAC enzymes as highly potent and effective new anticancer therapeutic drugs” (Frontiers in Pharmacology, 2022):
Several values for one entry are separate records, joined by “and”; a condition that tells them apart may be missing. Identical values can stand only once. Like-named read-outs stand apart in the source and are kept apart here.

Tests used:
MCF10A = experiment: CCK8 cytotoxicity test on normal cell line MCF10A; details: for IC50: 48 h
Protocol: (§1) MDA-MB-231 (231) and HTB131 were grown with RPIM-1640 medium (with 10% Fetal Bovine Serum and 2% Penicillin-Streptomycin Solution). MDA-MB-231BR (231BR), CRL-1620 (CRL), and MCF10A were grown with DMEM (with 10% Fetal Bovine Serum and 2% Penicillin-Streptomycin Solution). HTB22 was grown with EMEM (with 10% Fetal Bovine Serum and 2% Penicillin-Streptomycin Solution). Cell lines were taken out from liquid nitrogen and thawed in a 37°C water bath. After thawing, cell cultures were transferred to 75 cm^2 flasks and incubated at 37°C with 5% CO2 for 4–7 days. After reaching 80% of cell confluence, cells were ready for subculturing or testing.
(§2) Anticancer activity tests were performed using a Cell Counting Kit-8 (CCK8, SigmaAldrich) following manufacturer’s instruction ([Shen et al., 2016]). Briefly, 100 µl of diluted cell suspension (approximately 10000 cells) was transferred to 96-well plate, incubated at 37°C with 5% CO2 for 24 h. Then, the compounds were diluted into a serial of concentrations in DMSO. Next, 0.5 µl of diluted compounds were added to 100 µl of cell medium and gently mixed, resulting in the final concentration of DMSO at 0.5%. 100 µl of the compound contained medium were then used to replace the original medium and incubated at 37°C for 48 h. After incubation with compounds, 10 µl of CCK8 reagent was added to each well and mixed by gently tapping the plate. Then, the plate was incubated at 37°C for 2–4 h until the orange color was dark enough to measure. The plate was measured using a Multiskan microplate reader (Fisher Scientific) at 450 nm. The IC50 was calculated by SPSS statistics (IBM). […] All cytotoxicity tests were performed in six biological replicates. Each compound was performed two cycles of screening: primary screening using 10 times serial dilution to determine the approximate concentration and then secondary screening using a narrow concentration range to acquire the accurate IC50.
(§3) The newly synthesized molecules in which their binding affinities were predicted in silico were tested on five different breast cancer lines, MDA-MB-231 (231), MDA-MB-361 (361), HTB131, HTB22, and MDA-MB-231BR (231BR), and one brain cancer cell line, CRL-1620 (CRL). […] Among these cell lines, 231BR attracted most of our interest because it is a brain metastatic specific breast cancer cell line that has 100% rate of brain metastasis and cannot migrate to any other organs ([Yoneda et al., 2001]). The anticancer capacities of each compound were first screened by 10 times dilution to generate different molar concentrations ranging in 5 orders of magnitudes. This wide concentration range was applied for primary screening (Supplementary Table S3) to narrow down the targets. The approximate IC50 was estimated in the primary screening step and used to design the concentration range of the secondary cytotoxicity tests (Supplementary Table S4). […] Anticancer drug taxol (paclitaxel) was used as the reference to estimate the efficacy of each compound. […] The anticancer activity against 231BR is of highest interest. Meanwhile, the same treatments were performed against the normal breast cell line, MCF10A, to test their cytotoxicity. […] A negative logarithm of IC50 was applied to represent the corresponding anticancer activity.

HTB131 = experiment: CCK8 anticancer activity / cytotoxicity test, HTB131; type: cell-based
CRL-1620 (CRL) = experiment: CCK8 anticancer activity / cytotoxicity test, CRL; type: cell-based; details: 48 h
MDA-MB-231BR (231BR) = experiment: CCK8 anticancer activity / cytotoxicity test, 231BR; type: cell-based
Protocol: (§4) The IC50 was calculated by SPSS statistics (IBM). […] All cytotoxicity tests were performed in six biological replicates.
(§5) The anticancer activity against 231BR is of highest interest. […] Figure 3 depicts the anticancer activities of these compounds.

MDA-MB-231 (231) = experiment: CCK8 anticancer activity / cytotoxicity test, 231; type: cell-based, human
MDA-MB-361 (361) = experiment: CCK8 anticancer activity / cytotoxicity test, 361; type: cell-based; details: Homo sapiens
Protocol: as §4, §5

[1] = CCK8 cytotoxicity test on normal cell line MCF10A; details: human
Protocol: as §1, §2, §3

HTB22 = experiment: CCK8 anticancer activity / cytotoxicity test, HTB22; type: cell-based; details: read-out: Approximate IC50, primary screening
Protocol: as §4, §5

[2] = HTB131, 48 h, narrow concentration range, read-out: IC50, secondary cytotoxicity test
[3] = CRL, narrow concentration range, read-out: IC50, secondary cytotoxicity test
[4] = 231BR, 48 h, narrow concentration range; read-out: IC50, secondary cytotoxicity test
[5] = 231BR, 48 h, 10 times serial dilution; read-out: Approximate IC50, primary screening
[6] = HTB131, 48 h, 10 times serial dilution, read-out: Approximate IC50, primary screening
[7] = Homo sapiens, MCF-10A, read-out: Approximate IC50, primary screening
[8] = MDA-MB-361, 361, 48 h, 10 times serial dilution, read-out: Approximate IC50, primary screening
[9] = CRL, 10 times serial dilution, read-out: Approximate IC50, primary screening
[10] = Homo sapiens, MDA-MB-231; 231, 48 h, 10 times serial dilution; read-out: Approximate IC50, primary screening

With `CCC1=NC(=Cc2[nH]c(-c3ncc[nH]3)cc2OC)C=C1.CCC1=NC(=Cc2[nH]c(-c3ncc[nH]3)cc2OC)C=C1.F[P-](F)(F)(F)(F)F.[Cu+]` [Compound C10] the IC50 (MCF10A; read-out: IC50, secondary cytotoxicity test, MCF10A normal cell line, Table S4) was 1400 nM, the IC50 (HTB131; [2]) was 2170 nM and the IC50 (CRL-1620 (CRL); [3]) was 1600 nM. The IC50 (MDA-MB-231BR (231BR); [4]) was 2200 nM and the IC50 (MDA-MB-231 (231); 231, 48 h, narrow concentration range; read-out: IC50, secondary cytotoxicity test) was 2860 nM.

`CCC1=N/C(=C\c2[nH]c(-c3ncc[nH]3)cc2OC)C=C1` [Compound L10] showed an IC50 (MDA-MB-231BR (231BR); [5]) of 285000 nM.

Compound `CCC1=NC(=Cc2[nH]c(-c3ccn[nH]3)cc2OC)C=C1.CCC1=NC(=Cc2[nH]c(-c3ccn[nH]3)cc2OC)C=C1.F[P-](F)(F)(F)(F)F.[Cu+]` [Compound C9] has an IC50 (HTB131; [6]) of 10200 nM.

With `CC(=O)O[C@H]1C(=O)[C@@]2(C)[C@H]([C@H](OC(=O)c3ccccc3)[C@]3(O)C[C@H](OC(=O)[C@H](O)[C@@H](NC(=O)c4ccccc4)c4ccccc4)C(C)=C1C3(C)C)[C@]1(OC(C)=O)CO[C@@H]1C[C@@H]2O` [Taxol, paclitaxel, reference compound] the IC50 (MCF10A; [7]) was greater than 7500 nM, the “times lower cytotoxicity on normal cell line” value (MCF10A; normal cell line MCF10A relative to 231BR) was “more than 700 times” and the IC50 (HTB131; [6]) was 57 nM. For the same compound, the IC50 (MDA-MB-361 (361); [8]) was greater than 7.5 µM, the IC50 (CRL-1620 (CRL); [9]) was 28 nM and the IC50 (MDA-MB-231BR (231BR); [5]) was 39 nM. For the same compound, the IC50 (MDA-MB-231 (231); [10]) was 21.3 nM.

In the case of `CCC1=N/C(=C\c2[nH]c(-c3cccn3C(=O)OC(C)(C)C)cc2OC)C=C1` [Compound L7], the IC50 (MCF10A; [7]) is reported as 75 to 750 nM, the IC50 at 48 h ([1]; MCF10A normal breast cells) is reported as 3.93 µM and the IC50 (HTB131; [6]) is reported as 75 to 750 nM. It also gave an IC50 (HTB131; [2]) of 139 nM, an IC50 (HTB131; HTB131, 48 h, read-out: IC50, secondary cytotoxicity test) of 0.0512 µg/mL and an IC50 (MDA-MB-361 (361); MDA-MB-361, 48 h, read-out: IC50, secondary cytotoxicity test) of 0.00212 mg/mL. It also gave an IC50 (MDA-MB-361 (361); [8]) of 0.75 to 7.5 µM, an IC50 (MDA-MB-361 (361); MDA-MB-361, 361, 48 h, Table S4, read-out: IC50, secondary cytotoxicity test) of 5.79 µM and an IC50 (CRL-1620 (CRL); [9]) of 750 to 7500 nM. For the same compound, the IC50 (CRL-1620 (CRL); [3]) was 409 nM, the IC50 (CRL-1620 (CRL); CRL, read-out: IC50, secondary cytotoxicity test) was 0.15 µg/mL and the IC50 (HTB22; HTB22, 48 h, 10 times serial dilution) was 0.75 to 7.5 µM. The IC50 (MDA-MB-231BR (231BR); [5]) was 75 nM, the IC50 (MDA-MB-231BR (231BR); [4]) was 46.3 nM and the IC50 (MDA-MB-231BR (231BR); 231BR, 48 h; read-out: IC50, secondary cytotoxicity test) was 0.017 µg/mL. The IC50 (MDA-MB-231 (231); Homo sapiens, MDA-MB-231, 48 h; read-out: IC50, secondary cytotoxicity test) was 0.0278 µg/mL, the IC50 (MDA-MB-231 (231); [10]) was 75 to 750 nM and the IC50 (MDA-MB-231 (231); Homo sapiens, MDA-MB-231; 231, 48 h, narrow concentration range; read-out: IC50, secondary cytotoxicity test) was 75.8 nM.

`CCC1=N/C(=C\c2[nH]c(-c3cccc4cc[nH]c34)cc2OC)C=C1` [Compound L15] showed an IC50 (MDA-MB-231BR (231BR); 48 h, 231BR, 48 h, 10 times serial dilution; read-out: Approximate IC50, primary screening) of 32000 nM.

With `CCCCCC1=C/C(=C/c2[nH]c(-c3ccc[nH]3)cc2OC)N=C1C` [Ps, Prodigiosin] the IC50 (MCF10A; [7]) was 7500 nM, the IC50 at 48 h [1] was 8.75 µM and 2.84 µg/mL and the IC50 (HTB131; 48 h, read-out: Approximate IC50, primary screening) was 750 to 7500 nM. The IC50 (HTB131; 48 h, read-out: IC50, secondary cytotoxicity test) was 2.81 µM and 0.91 µg/mL, the IC50 (MDA-MB-361 (361); MDA-MB-361, 48 h, read-out: Approximate IC50, primary screening, 361, 48 h, 10 times serial dilution) was greater than 7.5 µM and the IC50 (MDA-MB-361 (361); MDA-MB-361, 48 h, read-out: IC50, secondary cytotoxicity test, 361, 48 h, Table S4) was greater than 75 µM. The IC50 (MDA-MB-361 (361); MDA-MB-361, 48 h, read-out: IC50, secondary cytotoxicity test, 361, 48 h, increased drug concentration) was 228 µM, the IC50 (MDA-MB-361 (361); MDA-MB-361, 48 h, read-out: IC50, secondary cytotoxicity test, 361, 48 h, increased drug concentration (mg/mL)) was 0.074 mg/mL and the IC50 (CRL-1620 (CRL); read-out: Approximate IC50, primary screening) was 750 to 7500 nM. The IC50 (CRL-1620 (CRL); read-out: IC50, secondary cytotoxicity test) was 4.64 µM and 1.5 µg/mL, the IC50 (HTB22; 48 h) was greater than 75 µM and the IC50 (MDA-MB-231BR (231BR); 48 h, read-out: IC50, secondary cytotoxicity test, 231BR, 48 h) was 0.312 µg/mL. The IC50 (MDA-MB-231BR (231BR); 48 h, read-out: IC50, secondary cytotoxicity test, 231BR, 48 h, narrow concentration range) was 963 nM, the IC50 (MDA-MB-231 (231); Homo sapiens, MDA-MB-231, 48 h, read-out: Approximate IC50, primary screening) was 750 to 7500 nM and the IC50 (MDA-MB-231 (231); Homo sapiens, MDA-MB-231, 48 h, read-out: IC50, secondary cytotoxicity test) was 0.511 µg/mL and 1.58 µM.

Work on `CCC1=NC(=Cc2[nH]c(-c3cn[nH]c3)cc2OC)C=C1.CCC1=NC(=Cc2[nH]c(-c3cn[nH]c3)cc2OC)C=C1.F[P-](F)(F)(F)(F)F.[Cu+]` [Compound C8] yielded an IC50 (MDA-MB-231BR (231BR); [5]) of 48500 nM.
